Source: ChEMBL document CHEMBL5360534, “Synthetic α-glucosidase inhibitors as promising anti-diabetic agents: Recent developments and future challenges” (Eur J Med Chem, 2023)
Each block holds one molecule with its values, some of them ahead of it.

Columns and labels:
Alpha-glucosidase [1] = molecular target: T1, Alpha-glucosidase (Saccharomyces cerevisiae S288c, UniProt P53341+P38158+P07265); experiment: Inhibition of Saccharomyces cerevisiae alpha-glucosidase using p-nitrophenyl glucopyranoside as substrate preincubated for 10 mins followed by substrate addition and measured after 20 mins by spectrophotometric analysis; format: protein assay
Alpha-glucosidase [2] = molecular target: T1, Alpha-glucosidase; experiment: Non-competitive inhibition of Saccharomyces cerevisiae alpha-glucosidase using p-nitrophenyl glucopyranoside as substrate assessed as inhibition constant preincubated for 15 mins followed by substrate addition and measured after 20 mins by spectrophotometric analysis; format: protein assay
Alpha-glucosidase [3] = molecular target: T1, Alpha-glucosidase; experiment: Inhibition of Saccharomyces cerevisiae alpha-glucosidase using p-nitrophenyl-alpha-D-glucopyranoside as substrate preincubated for 10 mins followed by substrate addition and measured after 20 mins by absorbance based microplate reader analysis; format: protein assay
Alpha-glucosidase [4] = molecular target: T1, Alpha-glucosidase; experiment: Un-competitive inhibition of Saccharomyces cerevisiae alpha-glucosidase using p-nitrophenyl glucopyranoside as substrate assessed as inhibition constant preincubated for 15 mins followed by substrate addition and measured after 20 mins by spectrophotometric analysis; format: protein assay
Alpha-glucosidase [5] = molecular target: T1, Alpha-glucosidase; experiment: Competitive inhibition of Saccharomyces cerevisiae alpha-glucosidase using p-nitrophenyl-alpha-D-glucopyranoside as substrate assessed as inhibition constant preincubated for 10 mins followed by substrate addition and measured after 20 mins by absorbance based analysis; format: protein assay
Alpha-glucosidase [6] = molecular target: T1, Alpha-glucosidase; experiment: Inhibition of Saccharomyces cerevisiae alpha-glucosidase using p-nitrophenyl-alpha-D-glucopyranoside as substrate preincubated for 10 mins followed by substrate addition and measured after 20 mins by absorbance based analysis; format: protein assay
Alpha-glucosidase [7] = molecular target: T1, Alpha-glucosidase; experiment: Inhibition of Saccharomyces cerevisiae alpha-glucosidase using p-nitrophenyl-alpha-D-glucopyranoside as substrate preincubated with compound followed by substrate addition and measured after 30 mins by absorbance based analysis; format: protein assay
Alpha-glucosidase [8] = molecular target: T1, Alpha-glucosidase; experiment: Inhibition of Saccharomyces cerevisiae alpha-glucosidase using p-nitrophenyl-alpha-D-glucopyranoside as substrate preincubated for 20 mins followed by substrate addition and measured after 30 mins by spectrophotometric analysis; format: protein assay
Alpha-glucosidase [9] = molecular target: T1, Alpha-glucosidase; experiment: Inhibition of Saccharomyces cerevisiae alpha-glucosidase using p-nitrophenyl-[…]-D-glucopyranoside as substrate preincubated for 15 mins followed by substrate addition and measured after 15 mins by absorbance based microplate reader analysis; format: protein assay
Alpha-glucosidase [10] = molecular target: T1, Alpha-glucosidase; experiment: Inhibition of Saccharomyces cerevisiae alpha-glucosidase using pNPG as substrate by spectroscopic analysis; format: protein assay
Alpha-glucosidase [11] = molecular target: T1, Alpha-glucosidase; experiment: Inhibition of Saccharomyces cerevisiae alpha-glucosidase using p-nitrophenyl-alpha-D-glucopyranoside as substrate preincubated for 5 mins followed by substrate addition and measured after 30 mins by absorbance based microplate reader analysis; format: protein assay
Alpha-glucosidase [12] = molecular target: T1, Alpha-glucosidase; experiment: Inhibition of Saccharomyces cerevisiae alpha-glucosidase using pNPG as substrate preincubated for 10 mins followed by substrate addition and measured after 20 mins by spectrophotometric analysis; format: protein assay
Alpha-glucosidase [13] = molecular target: T1, Alpha-glucosidase; experiment: Competitive inhibition of Saccharomyces cerevisiae alpha-glucosidase using pNPG as substrate assessed as inhibition constant preincubated for 10 mins followed by substrate addition and measured after 20 mins by spectrophotometric analysis; format: protein assay
[14] = molecular target: T2, Alpha-glucosidase (Saccharomyces cerevisiae S288c) (UniProt P53341+P38158+P07265); experiment: Potency index, ratio of acarbose IC50 to test compound IC50 for inhibition of Saccharomyces cerevisiae alpha-glucosidase using pNPG as substrate preincubated for 10 mins followed by substrate addition and measured after 20 mins by spectrophotometric analysis; format: protein assay; conditions: time 30.0 min
Rattus norvegicus = species on record: Rattus norvegicus; experiment: Anti-hyperglycemic activity against STZ-induced hyperglycemic rat model assessed as reduction in blood glucose level relative to control; format: functional; parameters: scale not given: the % may be the effect or the level left
[15] = Inhibition of alpha-glucosidase (unknown origin); parameters: species or system Homo sapiens
[16] = molecular target: T2, Alpha-glucosidase (Saccharomyces cerevisiae S288c); experiment: Potency index, ratio of acarbose IC50 to test compound IC50 for inhibition of Saccharomyces cerevisiae alpha-glucosidase using p-nitrophenyl-alpha-D-glucopyranoside as substrate preincubated for 15 mins followed by substrate addition and measured by microplate reader analysis; format: protein assay
Alpha-glucosidase [17] = molecular target: T1, Alpha-glucosidase; experiment: Inhibition of Saccharomyces cerevisiae alpha-glucosidase using p-nitrophenyl-alpha-D-glucopyranoside as substrate preincubated for 15 mins followed by substrate addition and measured by microplate reader analysis; format: protein assay
Homo sapiens = species on record: Homo sapiens; experiment: Inhibition of alpha-glucosidase (unknown origin) relative to control; conditions: concentration not given here
Alpha-glucosidase [18] = molecular target: T1, Alpha-glucosidase; experiment: Inhibition of Saccharomyces cerevisiae alpha-glucosidase using p-nitrophenyl glucopyranoside as substrate preincubated for 10 mins followed by substrate addition and measured after 30 mins by absorbance based microplate reader analysis; format: protein assay
Alpha-glucosidase [19] = molecular target: T1, Alpha-glucosidase; experiment: Inhibition of Saccharomyces cerevisiae alpha-glucosidase using p-nitrophenyl-alpha-D-glucopyranoside as substrate preincubated for 15 mins followed by substrate addition and measured after 30 mins by spectrophotometric analysis; format: protein assay
Alpha-glucosidase [20] = molecular target: T1, Alpha-glucosidase; experiment: Non-competitive inhibition of Saccharomyces cerevisiae alpha-glucosidase using p-nitrophenyl-alpha-D-glucopyranoside as substrate assessed as inhibition constant preincubated for 15 mins followed by substrate addition and measured after 30 mins by spectrophotometric analysis; format: protein assay
[21] = Inhibition of rat intestinal alpha-glucosidase assessed as inhibition constant
[22] = Inhibition of rat intestinal alpha-glucosidase

IC50 (Alpha-glucosidase [1]): 15.7 µM | Ki (Alpha-glucosidase [2]): 28 µM
Compound: N#CC1=C(N)Oc2c(c(=O)[nH]c3c2ccc2ccccc23)C1c1ccc(Br)cc1 (stereo unspecified)

IC50 (Alpha-glucosidase [3]): 42.8 µM
Compound: O=C1CS/C(=N\N=C\c2ccc(OS(=O)(=O)c3ccccc3[N+](=O)[O-])cc2)N1

IC50 (Alpha-glucosidase [1]): 10.3 µM | Ki (Alpha-glucosidase [4]): 11 µM
Compound: N#CC1=C(N)Oc2c(c(=O)[nH]c3c2ccc2ccccc23)C1c1ccc(Cl)cc1 (stereo unspecified)

Ki (Alpha-glucosidase [5]): 71 µM | IC50 (Alpha-glucosidase [6]): 75.6 µM
Compound: Cc1ccc(NC(=O)Oc2ccc(-c3nc4ccccn4c3NC(C)(C)C)cc2)cc1

IC50 (Alpha-glucosidase [7]): 2.1 µM
Compound: CC1=NN(c2ccc([N+](=O)[O-])cc2)C(=O)/C1=C/c1cn(-c2ccccc2)nc1-c1cc2cc(Br)ccc2oc1=O

IC50 (Alpha-glucosidase [8]): 46.01 µM
Compound: CC(C)=C(C)CSc1nnc(-c2cc(OCC(F)(F)F)ccc2OCC(F)(F)F)o1

IC50 (Alpha-glucosidase [9]): 67 µM
Compound: O=C1Nc2ccc([N+](=O)[O-])cc2C1(c1c[nH]c2ccc(O)cc12)c1c[nH]c2cccc(O)c12 (stereo unspecified)

IC50 (Alpha-glucosidase [10]): 0.02847 µM
Compound: Brc1cccc(CSc2nnc(-c3ccc4nc(-c5ccccc5)c(-c5ccccc5)nc4c3)o2)c1

IC50 (Alpha-glucosidase [11]): 5.8 µM
Compound: COc1cccc(NC(=O)Cn2nc3c(c2C)N(C)Sc2ccccc2-3)c1

IC50 (Alpha-glucosidase [12]): 40.6 µM | Ki (Alpha-glucosidase [13]): 38 µM | Ratio IC50 [14]: 18
Compound: O=C(N/N=C/c1cn(-c2ccccc2)nc1-c1ccc([N+](=O)[O-])cc1)c1cc2ccccc2o1

IC50 [15]: 561 µM
Compound: COc1ccc(-n2c(SCC(=O)N/N=C/c3ccc(O)cc3)nc3ccccc3c2=O)cc1
Activity (Rattus norvegicus): 43.07%

Ratio IC50 [16]: 167 | IC50 (Alpha-glucosidase [17]): 0.83 µM
Compound: Oc1cc(-c2cc3cccc(Cl)c3o2)cc(O)c1O

IC50 [15]: 29.8 µM | inhibition (Homo sapiens): 94.5%
Compound: Cc1ccc(NS(=O)(=O)c2ccc(-n3nnc4ccccc4c3=O)cc2)cc1C

IC50 (Alpha-glucosidase [18]): 9.37 µM
Compound: Cc1cccc(NC(=O)CSc2nnc(Cc3c[nH]c4ccccc34)o2)c1

IC50 (Alpha-glucosidase [19]): 2.56 µM | Ki (Alpha-glucosidase [20]): 2.04 µM
Compound: O=C(COc1ccc2ccc(=O)oc2c1)N/N=C1\C(=O)N(Cc2ccccc2F)c2ccc(Cl)cc21

Ki [21]: 6.3 µM | IC50 [22]: 5.8 µM
Compound: N[C@H]1[C@H](O)[C@@H](O)[C@H](O)[C@@H](CO)[C@@H]1CCO
